According to US20260234144A1 (TAY THERAPEUTICS LIMITED, priority 2023, published 2026):

Tested on: R223X stop codon in the mutated luciferase gene, ADXC8 luciferase reporter cell line
Assay: cells
Format: cell-based
Conditions: ADXC8 cells, 24 hours; for Emax / EC (100% of 200 uM G418 response): 24 h; for Emax: read-out: Fold Over Control, maximum fold response relative to 200 μM G418; for EC (100% of 200 uM G418 response): read-out: pC100%, negative logarithm of the concentration giving the same response as 200 μM G418; for pC100%: negative logarithm of the concentration giving the same response as 200 μM G418

Structure (SMILES)	Emax [%]	EC (100% of 200 uM G418 response) [µM]	pC100%	Fold Over Control (maximum fold response relative to 200 μM G418)
Cc1cc(C)c2c(N)nc(NC3CCN(Cc4c(C)cccc4C)CC3)nc2n1 [Example 468]	100 to 3000	1 to 10	–	–
Cc1cc(C)c2c(N)nc(NC3CCN(Cc4cc[nH]n4)CC3)nc2n1 [Example 469]	100 to 3000	10 to 100	–	–
Cc1cc(C)c2c(N)nc(NC3CCN(Cc4c(Cl)cccc4Cl)CC3)nc2n1 [Example 470]	100 to 3000	1 to 10	–	–
Cc1cc(C)c2c(N)nc(NC3CCN(Cc4ccccn4)CC3)nc2n1 [Example 471]	100 to 3000	1 to 10	–	–
Cc1cc(C)c2c(N)nc(NC3CCN(Cc4cocn4)CC3)nc2n1 [Example 472]	100 to 3000	1 to 10	–	–
Cc1cc(C)c2c(N)nc(NC3CCN(Cc4ncco4)CC3)nc2n1 [Example 473]	100 to 3000	10 to 100	–	–
Cc1cc(C)c2c(N)nc(NC3CCN(Cc4cnco4)CC3)nc2n1 [Example 474]	100 to 3000	10 to 100	–	–
CNC(=O)c1ccc(CN2CCC(Nc3nc(N)c4c(C)cc(C)nc4n3)CC2)cc1 [Example 475]	100 to 3000	10 to 100	–	–
Cc1cc(C)c2c(N)nc(NC3CCN(Cc4ccc(C(N)=O)cc4)CC3)nc2n1 [Example 476]	100 to 3000	10 to 100	–	–
CNC(=O)c1cccc(CN2CCC(Nc3nc(N)c4c(C)cc(C)nc4n3)CC2)c1 [Example 477]	100 to 3000	10 to 100	–	–
COc1ccc(CN2CCC(Nc3nc(N)c4c(C)cc(C)nc4n3)CC2)cc1 [Example 478]	100 to 3000	0.1 to 1	–	–
Cc1cc(C)c2c(N)nc(NC3CCN(Cc4c(F)cccc4F)CC3)nc2n1 [Example 479]	100 to 3000	1 to 10	–	–
CC(=O)Nc1cccc(CN2CCC(Nc3nc(N)c4c(C)cc(C)nc4n3)CC2)c1 [Example 480]	100 to 3000	10 to 100	–	–
Cc1cc(C)c2c(N)nc(NC3CCN(Cc4ccc(CO)cc4)CC3)nc2n1 [Example 481]	100 to 3000	1 to 10	–	–
Cc1cc(C)c2c(N)nc(NC3CCN(Cc4cccc(CO)c4)CC3)nc2n1 [Example 482]	100 to 3000	10 to 100	–	–
Cc1cc(C)c2c(N)nc(NC3CCN(Cc4nnc[nH]4)CC3)nc2n1 [Example 483]	0 to 100	> 31.6	–	–
Cc1cc(C)c2c(N)nc(NC3CCN(Cc4cccc(C(N)=O)c4)CC3)nc2n1 [Example 484]	100 to 3000	10 to 100	–	–
Cc1cc(C)c2c(N)nc(NC3CCN(Cc4ccc(C(F)F)cc4)CC3)nc2n1 [Example 485]	100 to 3000	1 to 10	–	–
Cc1cc(C)c2c(N)nc(NC3CCN(Cc4ncc[nH]4)CC3)nc2n1 [Example 487]	100 to 3000	1 to 10	–	–
COCc1ccc(CN2CCC(Nc3nc(N)c4c(C)cc(C)nc4n3)CC2)cc1 [Example 488]	100 to 3000	1 to 10	–	–
Cc1cc(C)c2c(N)nc(NC3CCN(Cc4cccc(C(F)F)c4)CC3)nc2n1 [Example 489]	100 to 3000	1 to 10	–	–
Cc1cc(C)c2c(N)nc(NC3CCN(Cc4ccccc4C(F)(F)F)CC3)nc2n1 [Example 490]	100 to 3000	10 to 100	–	–
Cc1cc(C)c2c(N)nc(NC3CCN(Cc4c[nH]cn4)CC3)nc2n1 [Example 491]	100 to 3000	10 to 100	–	–
Cc1cc(C)c2c(N)nc(NC3CCN(Cc4cccc(C(F)(F)F)c4)CC3)nc2n1 [Example 492]	100 to 3000	10 to 100	–	–
Cc1cc(C)c2c(N)nc(NC3CCN(Cc4ccccc4C(F)F)CC3)nc2n1 [Example 493]	100 to 3000	1 to 10	–	–

Structure (SMILES)	Emax [%]	EC (100% of 200 uM G418 response) [µM]	pC100%	Fold Over Control (maximum fold response relative to 200 μM G418)
COc1cccc(CN2CCC(Nc3nc(N)c4c(C)cc(C)nc4n3)CC2)c1 [Example 494]	100 to 3000	1 to 10	–	–
Cc1cc(C)c2c(N)nc(NC3CCN(Cc4ccc(C(=O)N(C)C)cc4)CC3)nc2n1 [Example 495]	0 to 100	> 31.6	–	–
Cc1cc(C)c2c(N)nc(NC3CCN(Cc4cccc(S(C)(=O)=O)c4)CC3)nc2n1 [Example 496]	100 to 3000	10 to 100	–	–
Cc1cc(C)c2c(N)nc(NC3CCN(Cc4ccc(S(C)(=O)=O)cc4)CC3)nc2n1 [Example 497]	100 to 3000	10 to 100	–	–
Cc1cc(C)c2c(N)nc(NC3CCN(Cc4ccccc4S(C)(=O)=O)CC3)nc2n1 [Example 498]	0 to 100	> 31.6	–	–
Cc1cc(C)c2c(N)nc(NC3CCN(Cc4cccc(C#N)c4)CC3)nc2n1 [Example 499]	100 to 3000	1 to 10	–	–
Cc1cc(C)c2c(N)nc(NC3CCN(Cc4ccccc4C#N)CC3)nc2n1 [Example 500]	100 to 3000	1 to 10	–	–
Cc1cc(C)c2c(N)nc(NC3CCN(Cc4ccno4)CC3)nc2n1 [Example 501]	100 to 3000	10 to 100	–	–
Cc1cc(C)c2c(N)nc(NC3CCN(Cc4cccnc4)CC3)nc2n1 [Example 504]	100 to 3000	1 to 10	–	–
Cc1cc(C)c2c(N)nc(NC3CCN(Cc4cccc(O)c4)CC3)nc2n1 [Example 506]	100 to 3000	1 to 10	–	–
[2H]C([2H])(c1ccc(C#N)cc1)N1CCC(Nc2nc(N)c3c(C)cc(C)nc3n2)CC1 [Example 507, 4-((4-((4-amino-5,7-dimethylpyrido[2,3-d]pyrimidin-2-yl)amino)piperidin-1-yl)methyl-d2)benzonitrile]	100 to 3000	0.1 to 1	–	–
Cc1cc(C)c2c(N)nc(NC3CCN(Cc4ccc(C#N)cc4C(F)F)CC3)nc2n1 [Example 508, 4-((4-((4-amino-5,7-dimethylpyrido[2,3-d]pyrimidin-2-yl)amino)piperidin-1-yl)methyl)-3-(difluoromethyl)benzonitrile]	100 to 3000	1 to 10	–	–
[2H]C([2H])([2H])Nc1nc(N[C@H]2CN(C)C[C@@H]2O)nc2nc3c(c(C)c12)CCC3 [Example 509, (3S,4S)-1-(methyl-d3)-4-((5-methyl-4-((methyl-da)amino)-7,8-dihydro-6H-cyclopenta[5,6]pyrido[2,3-d]pyrimidin-2-yl)amino)pyrrolidin-3-ol]	–	0.01 to 0.1	–	–
Cc1c2c(nc3nc(NC4CCNCC4)nc(NCCO)c13)CCC2 [Example 510, 2-((5-methyl-2-(piperidin-4-ylamino)-7,8-dihydro-6H-cyclopenta[5,6]pyrido[2,3-d]pyrimidin-4-yl)amino)ethan-1-ol]	100 to 3000	0.1 to 1	–	–
CC(=O)Nc1cc(C#N)ccc1CN1CCC(Nc2nc(N)c3c(C)cc(C)nc3n2)CC1 [Example 511, N-(2-((4-((4-amino-5,7-dimethylpyrido[2,3-d]pyrimidin-2-yl)amino)piperidin-1-yl)methyl)-5-cyanophenyl)acetamide]	100 to 3000	1 to 10	–	–
[2H]C([2H])([2H])Nc1nc(NC2CCN(C([2H])([2H])[2H])CC2)nc2nc(C)cc(C)c12 [Example 512, 5,7-dimethyl-N^4-(methyl-da)-N^2-(1-(methyl-da)piperidin-4-yl)pyrido[2,3-d]pyrimidine-2,4-diamine]	–	0.1 to 1	–	–
CNc1nc(N[C@@H]2CCN(C)C2)nc2nc(OC)c(CCO)c(C)c12 [Example 513, (R)-2-(7-methoxy-5-methyl-4-(methylamino)-2-((1-methylpyrrolidin-3-yl)amino)pyrido[2,3-d]pyrimidin-6-yl)ethan-1-ol]	0 to 100	> 31.6	–	–
CNc1nc(N[C@@H]2CCN(C)C2)nc2nc3c(c(C)c12)CCO3 [Example 514, (R)—N^4,5-dimethyl-N^2-(1-methylpyrrolidin-3-yl)-6,7-dihydrofuro[3′,2′:5,6]pyrido[2,3-d]pyrimidine-2,4-diamine]	100 to 3000	1 to 10	–	–
CNc1cc(N[C@@H]2CCN(C)C2)nc2nc(C)cc(C)c12 [Example 515, (R)—N^4,5,7-trimethyl-N^2-(1-methylpyrrolidin-3-yl)-1,8-naphthyridine-2,4-diamine]	100 to 3000	1 to 10	–	–
CNc1nc(NC2CC3CCC2N3)nc2nc(C)cc(C)c12 (centres unmarked) [Example 517, N^2-(-7-azabicyclo[2.2.1]heptan-2-yl)-N^4,5,7-trimethylpyrido[2,3-d]pyrimidine-2,4-diamine]	100 to 3000	–	++ (pC100% > 5.0 ≤ 6.0)	–
CNc1nc(NC2CC3CCC2N3)nc2nc(C)cc(C)c12 (centres unmarked) [Example 518, N^2-(-7-azabicyclo[2.2.1]heptan-2-yl)-N^4,5,7-trimethylpyrido[2,3-d]pyrimidine-2,4-diamine]	–	–	+ (pC100% > 4.0 ≤ 5.0)	## (Fold over Ctrl > 1 ≤ 30)
CNc1nc(N[C@H]2CN(C3CC3)C[C@H]2F)nc2nc(C)cc(C)c12 [Example 519, N^2-((3S,4R)-1-cyclopropyl-4-fluoropyrrolidin-3-yl)-N^4,5,7-trimethylpyrido[2,3-d]pyrimidine-2,4-diamine]	0 to 100	> 31.6	–	–
CNc1nc(N[C@H]2CN(C)C[C@@H]2O)nc2nc(C)c(C)c(C)c12 [Example 520, (3S,4S)-1-methyl-4-((5,6,7-trimethyl-4-(methylamino)pyrido[2,3-d]pyrimidin-2-yl)amino)pyrrolidin-3-ol]	100 to 3000	0.1 to 1	–	–
Cc1cc(C2CCC2)nc2nc(NC3CCN(C)CC3)nc(N)c12 [Example 521, 7-cyclobutyl-5-methyl-N^2-(1-methylpiperidin-4-yl)pyrido[2,3-d]pyrimidine-2,4-diamine]	–	1 to 10	–	–
